One series deals with T1, Cytochrome P450 1A2 (Homo sapiens, UniProt P05177).
T1 sequence (P05177 whole entry): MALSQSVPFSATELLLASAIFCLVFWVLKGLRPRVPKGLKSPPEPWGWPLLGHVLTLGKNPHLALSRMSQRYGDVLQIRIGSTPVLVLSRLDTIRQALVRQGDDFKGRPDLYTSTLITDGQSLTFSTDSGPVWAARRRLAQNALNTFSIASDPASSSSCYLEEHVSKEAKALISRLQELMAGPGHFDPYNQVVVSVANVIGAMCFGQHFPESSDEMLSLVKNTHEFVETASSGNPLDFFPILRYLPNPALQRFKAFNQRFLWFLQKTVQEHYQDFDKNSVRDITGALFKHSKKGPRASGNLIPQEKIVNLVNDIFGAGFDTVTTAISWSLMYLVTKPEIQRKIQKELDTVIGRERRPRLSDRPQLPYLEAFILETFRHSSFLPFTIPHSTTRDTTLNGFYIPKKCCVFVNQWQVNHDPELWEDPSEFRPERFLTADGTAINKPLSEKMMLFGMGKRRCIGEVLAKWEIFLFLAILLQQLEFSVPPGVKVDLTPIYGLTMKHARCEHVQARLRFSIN
Kind of series: Inhibition of CYP1A2 (unknown origin). The series is classed as ADME.

Series [1] in a line: Fraction unbound in Cynomolgus monkey plasma. The class given is ADME, cell-free, Macaca fascicularis.
A further series concerns Mus musculus. Description: In vivo inhibition of NLRP3 dependent cytokine production in po dosed LPS-challenged C57BL/6 mouse model assessed as inhibition of LPS-induced TNFalpha production in blood pretreated for 1 hr followed by induced with LPS measured after 5 hrs by cytokine bead assay. As to conditions: time 6.0 hrs. The class given is functional, organism-based.
The next series deals with Cytochrome P450 3A5 (Homo sapiens, UniProt P20815). Kind of series: Inhibition of CYP3A5 (unknown origin) by time dependent inhibition assay. The class given is ADME.
Series [2] is described as follows: Volume of distribution at steady state in Sprague-Dawley rat at 5 mg/kg, po by LC-MS analysis. As to conditions: in vivo. The class given is ADME, organism-based.
A short description of series [3]: Thermodynamic solubility in PBS at pH 7.4. The class given is physicochemical. As to conditions: read-out: Therm_solubility.
Series [4] is described as follows: In vivo inhibition of NLRP3 dependent cytokine production in po dosed LPS-challenged C57BL/6 mouse model assessed as inhibition of LPS-induced IL-1beta production in blood by measuring plasma compound concentration by enhanced flex bead assay. The class given is functional, organism-based.
Series [5] is described as follows: Cmax in Beagle dog at 2 mg/kg, po by LC-MS analysis. The class given is ADME, organism-based, Canis lupus familiaris. The settings on record: in vivo.
Series [6] can be described thus: AUC (infinity) in Cynomolgus monkey at 5 mg/kg, po by LC-MS analysis. The series is classed as ADME, organism-based, Macaca fascicularis. As to conditions: in vivo.
The nature of series [7]: Half life in Beagle dog at 2 mg/kg, po and 1 mg/kg, iv by LC-MS analysis. The series is classed as ADME, organism-based, Canis lupus familiaris. As to conditions: in vivo.
A further series concerns the target Cytochrome P450 3A4 (Homo sapiens, UniProt P08684). Description: Inhibition of CYP3A4 (unknown origin) by time dependent inhibition assay. The class given is ADME.
The target in a further series is Cytochrome P450 2C9 (Homo sapiens, UniProt P11712). Description: Inhibition of CYP2C9 (unknown origin). The series is classed as ADME.
Another series in a line: cells. The settings on record: Macaca fascicularis, PBMC.
The nature of series [8]: Fraction unbound in Beagle dog […] plasma. The class given is ADME, cell-free, Canis lupus familiaris.
A further series has as its system THP-1. Description: Inhibition of pyroptosis in PMA-primed human THP-1 cells assessed as release of lactate dehydrogenase.
Series [9] in a line: Thermodynamic solubility in PBS at pH 5. The series is classed as physicochemical. As to conditions: read-out: Therm_solubility.
For a further series, the target named is hERG (Homo sapiens, UniProt Q12809). Description: Inhibition of hERG at 30 uM relative to control. The class given is toxicity. A general note: Block of hERG is tested as a sign of cardiac risk.
In the next series the test system is Macrophage. Kind of series: Inhibition of AIM2 inflammasome activation in mouse iMac assessed as inhibition of poly(dA:dT) induced IL-1beta release pretreated for 1 hr followed by induced with poly(dA:dT) measured after 2 hr incubation by HTRF analysis. As to conditions: time 3.0 hrs. The class given is cell-based. Background: In TR-FRET formats the signal depends on donor and acceptor labels being close together.

In brackets after ≈: the same amount, converted by molar mass. Activity calls are given as the source filed them. The rule behind the calls is not given here.

From ChEMBL document CHEMBL6115017, “Discovery of DFV890, a Potent Sulfonimidamide-Containing NLRP3 Inflammasome Inhibitor” (J Med Chem, 2025) come the findings set out here.

As a reminder, the IC50 is the concentration that inhibits the measured activity by half. One may read the fraction unbound as the share of the substance not bound to proteins or other matrix. One may read the inhibition as the share of the control response that was lost under treatment. In general, IC90 refers to the concentration needed for an effect of 90%. The term Cmax denotes the peak of the concentration-time curve. By AUC(0-inf) is commonly meant total exposure, with the tail of the curve extrapolated. Broadly, the half-life is how long it takes for the measured level to halve.

Cytochrome P450 3A4, sequence (P08684 whole entry): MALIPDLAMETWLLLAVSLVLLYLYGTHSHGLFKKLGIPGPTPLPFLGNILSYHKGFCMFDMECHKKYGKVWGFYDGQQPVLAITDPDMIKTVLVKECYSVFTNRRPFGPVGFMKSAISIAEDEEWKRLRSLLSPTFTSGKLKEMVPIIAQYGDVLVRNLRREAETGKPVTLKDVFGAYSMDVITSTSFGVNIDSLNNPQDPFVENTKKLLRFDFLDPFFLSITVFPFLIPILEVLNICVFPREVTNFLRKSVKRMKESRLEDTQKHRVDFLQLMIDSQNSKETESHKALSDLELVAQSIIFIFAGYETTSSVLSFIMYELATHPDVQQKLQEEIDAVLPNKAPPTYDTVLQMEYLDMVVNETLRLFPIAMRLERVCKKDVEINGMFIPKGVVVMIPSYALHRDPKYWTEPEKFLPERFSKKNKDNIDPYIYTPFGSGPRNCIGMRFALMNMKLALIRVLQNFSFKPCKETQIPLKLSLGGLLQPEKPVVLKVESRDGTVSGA
Cytochrome P450 2C9, sequence (P11712 whole entry): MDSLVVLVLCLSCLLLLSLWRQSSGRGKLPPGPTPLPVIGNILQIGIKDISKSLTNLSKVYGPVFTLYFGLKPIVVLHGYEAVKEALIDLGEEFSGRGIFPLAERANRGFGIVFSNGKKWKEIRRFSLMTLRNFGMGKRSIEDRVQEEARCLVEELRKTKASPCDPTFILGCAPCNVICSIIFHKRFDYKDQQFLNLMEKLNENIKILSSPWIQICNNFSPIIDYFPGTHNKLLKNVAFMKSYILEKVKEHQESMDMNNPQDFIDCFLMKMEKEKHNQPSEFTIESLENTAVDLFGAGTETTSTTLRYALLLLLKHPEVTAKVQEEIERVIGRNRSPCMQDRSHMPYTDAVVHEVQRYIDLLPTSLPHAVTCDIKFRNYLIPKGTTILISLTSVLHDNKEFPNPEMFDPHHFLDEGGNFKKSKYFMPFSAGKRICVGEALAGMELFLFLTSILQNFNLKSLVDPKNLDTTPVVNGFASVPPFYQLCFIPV
hERG, sequence (Q12809 whole entry): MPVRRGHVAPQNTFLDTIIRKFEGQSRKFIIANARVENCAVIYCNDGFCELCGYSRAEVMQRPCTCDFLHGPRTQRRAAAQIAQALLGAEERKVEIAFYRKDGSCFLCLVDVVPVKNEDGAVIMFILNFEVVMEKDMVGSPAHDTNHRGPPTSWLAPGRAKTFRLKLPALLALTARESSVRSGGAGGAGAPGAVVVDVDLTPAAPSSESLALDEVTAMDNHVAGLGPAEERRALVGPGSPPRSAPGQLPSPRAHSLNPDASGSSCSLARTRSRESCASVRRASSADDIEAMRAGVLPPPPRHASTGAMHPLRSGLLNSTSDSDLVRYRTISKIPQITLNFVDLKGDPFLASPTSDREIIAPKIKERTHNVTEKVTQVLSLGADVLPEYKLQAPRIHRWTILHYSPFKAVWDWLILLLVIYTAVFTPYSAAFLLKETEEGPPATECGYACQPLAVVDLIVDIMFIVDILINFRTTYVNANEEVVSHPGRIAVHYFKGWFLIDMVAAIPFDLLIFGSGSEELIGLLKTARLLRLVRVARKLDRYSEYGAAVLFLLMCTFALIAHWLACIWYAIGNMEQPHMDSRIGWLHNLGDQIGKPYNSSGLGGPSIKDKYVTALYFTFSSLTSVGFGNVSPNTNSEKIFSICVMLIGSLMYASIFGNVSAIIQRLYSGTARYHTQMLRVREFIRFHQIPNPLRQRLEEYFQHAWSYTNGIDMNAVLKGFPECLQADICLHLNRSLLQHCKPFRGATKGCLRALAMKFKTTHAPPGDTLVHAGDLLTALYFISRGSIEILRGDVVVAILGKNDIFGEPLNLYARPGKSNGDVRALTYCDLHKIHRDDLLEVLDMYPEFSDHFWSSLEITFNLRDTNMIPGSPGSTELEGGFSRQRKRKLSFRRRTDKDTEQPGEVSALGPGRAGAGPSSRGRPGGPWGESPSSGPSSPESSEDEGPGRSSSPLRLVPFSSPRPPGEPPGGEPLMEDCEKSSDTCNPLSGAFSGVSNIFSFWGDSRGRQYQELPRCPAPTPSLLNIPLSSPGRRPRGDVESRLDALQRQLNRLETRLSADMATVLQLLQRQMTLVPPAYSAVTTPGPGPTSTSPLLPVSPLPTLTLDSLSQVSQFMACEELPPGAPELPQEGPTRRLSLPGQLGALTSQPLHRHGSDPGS
Cytochrome P450 3A5, sequence (P20815 whole entry): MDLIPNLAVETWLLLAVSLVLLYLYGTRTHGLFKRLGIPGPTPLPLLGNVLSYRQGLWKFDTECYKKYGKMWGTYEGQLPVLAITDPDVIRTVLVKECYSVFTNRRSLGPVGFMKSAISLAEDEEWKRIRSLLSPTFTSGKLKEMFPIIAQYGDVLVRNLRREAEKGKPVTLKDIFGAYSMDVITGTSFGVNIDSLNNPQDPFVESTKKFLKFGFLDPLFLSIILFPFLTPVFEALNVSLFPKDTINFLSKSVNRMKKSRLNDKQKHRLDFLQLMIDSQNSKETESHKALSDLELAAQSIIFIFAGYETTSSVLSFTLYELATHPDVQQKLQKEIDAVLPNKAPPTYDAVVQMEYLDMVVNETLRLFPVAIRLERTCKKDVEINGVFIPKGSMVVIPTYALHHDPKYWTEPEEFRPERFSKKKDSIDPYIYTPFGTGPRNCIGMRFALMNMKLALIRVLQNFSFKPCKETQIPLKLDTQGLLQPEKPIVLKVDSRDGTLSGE
Description for cells: Antagonist activity at NLRP3 inflammasome activation in Cynomolgus monkey PBMC assessed as inhibition of LPS-stimulated IL-1beta release pretreated for 1 hr followed by induced with LPS measured after 18 hrs by HTRF analysis

In the case of `CC(C)(O)c1ncc([S@](N)(=O)=NC(=O)Nc2c3c(cc4c2CCC4)CCC3)s1`, the IC50 at Cytochrome P450 1A2 is > 60000 nM; in series [4] (Mus musculus, C57BL/6), 0.416 µg/mL; against Cytochrome P450 2C9, > 60000 nM; in “cells”, 6.1 nM; in the series on THP-1, 27 nM. Also, the free fraction (fraction unbound) was found to be 0.005 in [1] and 0.009 in series [8]. The inhibition entry in the series with Mus musculus was “Dose-dependent-effect”. In addition, the TDI result at Cytochrome P450 3A5 and on Cytochrome P450 3A4 was “Not_active” each time. This molecule also showed a Vdss in series [2] of 0.188 L/kg. Moreover, the figures for the solubility thermodynamic in series [3] and in series [9] were 21 µg/mL (≈ 49.9 µM) and 9.1 µg/mL (≈ 21.6 µM), respectively. Besides, the IC90 in series [4] (route po) was found to be 3.742 µg/mL. This molecule also yielded a Cmax in [5] of 6560 ng/mL. The AUC(0-inf) in series [6] was 331 µg·h/mL. The half-life in series [7] is 9.4 h. The molecule also gave an inhibition at 30 µM at hERG of 8%. In the series with Macrophage, the result was inactive.
